# Source: US20250249001A1, “METHODS OF TREATING SUBSTANCE USE DISORDER WITH 4-(3-CYANOPHENYL)-6-PYRIDINYLPYRIMIDINE MGLU5 NEGATIVE ALLOSTERIC MODULATORS” (Tempero Bio, Inc., priority 2022, published 2025)
# Like-named read-outs stand apart in the source and are kept apart here.
# Columns and labels:
# [1] = system: cocaine reinstatement in rats; assay: Yohimbine-induced reinstatement of cocaine self-administration (Stage II); assay type: in vivo, Sprague-Dawley rats; settings: 3 mg/kg co-administered with yohimbine 2 mg/kg; Ps<0.001
# [2] = system: oxycodone reinstatement in rats; assay: Yohimbine-induced reinstatement of oxycodone self-administration; assay type: in vivo, Sprague-Dawley rats; settings: 3 mg/kg thirty minutes before yohimbine 2 mg/kg; Ps<0.001
# Protocol: Evaluation of Compound 1 on Oxycodone Reinstatement. After completion of testing rats were re-trained with oxycodone for one week to ensure stable baseline. Rats then underwent a 6-day extinction where only saline infusion occurred when active lever was pressed. Meanwhile, the rats were divided into 3 groups: All rats received one injection of alpha-2 adrenergic antagonist yohimbine (2 mg/kg) with 0 min pretreatment (rats were placed into the training box immediately). Thirty minutes before yohimbine treatment, one group of rats received saline, another group received MTEP 3 mg/kg injection, and the 3rd group received Compound 1 (3 mg/kg). Yohimbine-induced reinstatement was re-tested two more times in the same rats 3 days and 6 days after the first test, under continuous extinction procedure.
# Statistical Analysis. Prism 9.40 software package Version 9 was used for statistical analysis and graphing. The number of active lever responses were recorded during each session and compared between treatment groups. A one-way mixed-effects model (REML) of ANOVA followed by Dunnett's post hoc tests were used to analyze efficacy of Compound 1 and MTEP on oxycodone self-administration in stages I (The repeated measure ANOVA was not totally applicable due to a few outlier data points, which are removed), and one-way mixed-effects model (REML) of ANOVA followed by Tukey's post hoc tests were used in Stage II. An effect was considered significant if P<0.05. Data were represented as the mean and standard error to the mean (s.e.m). Statistical outliers which exceeded mean +/− (2× standard deviation) of the group were removed from the analysis.
# [3] = system: cocaine-induced CPP in male SD rats; assay type: in vivo, Sprague Dawley rats; settings: for time difference (drug-paired vs saline-paired) vs Cocaine-Saline group / time spent in the drug-paired compartment vs Cocaine-Saline group: day 10
# Protocol: Animals: Male Sprague Dawley rats (Envigo, IN, 275-299 g) were group housed upon arrival (2 per cage). All rats were examined and handled to assure adequate health and suitability. During the study, a 12/12 light/dark cycle was maintained (lights switched on at 7:00 am). The room temperature was maintained between […] and 23° C. with a relative humidity maintained around 50%. Chow (LabDiet #5001) and water were provided ad libitum for the duration of the study. The test was performed during the animal's light cycle phase.
# Cocaine (10 mg/kg) was dissolved in saline and injected IP at a dose volume of 1 ml/kg. Cocaine was administered on training days 3, 5, 7 and 9 immediately prior to training.
# 3-((2-Methyl-4-thiazolyl)ethynyl)pyridine (MTEP, 3 mg/kg), was dissolved in saline and injected IP on day 10 (bias test) at a dose volume of 1 ml/kg 30 minutes prior to testing.
# Compound 1 (1, 3 and 10 mg/kg) was formulated in 10% Solutol HS15 and 90% (10% aqueous 2-hydroxypropyl-β-cyclodextrin) and injected IP on day 10 (bias test) at a dose volume of 2 ml/kg. Compound 1 was administered 30 minutes prior to testing.
# The chamber used in this study contained two compartments [(60 cm (L)×40 cm (W)×24 cm (H)]. The compartment used for each animal and drug pairing was assigned and counterbalanced in advance and adjusted as necessary in the rebalancing procedure after day 1 (see details below). Within the chamber, visual and physical features were used to create the two distinct compartments. For example, one compartment may have a flat plastic floor with white stripes and the other may have a textured floor and black stripes. The chambers were cleaned with 70% alcohol in between runs.
# Testing sessions were recorded on days 1 and 10 to determine time spent (seconds) in each chamber.
# Day 1 Pre-conditioning/Habituation: Animals are allowed to explore the entire testing chamber freely for 20 min. Animals that display a strong preference for one compartment (>75% time spent in one compartment) are excluded.
# Rebalancing Procedure: Animals are rebalanced following day 1 scoring if the difference between groups for time spent in one compartment is greater than 15%.
# Days 2-9 Conditioning: All animals are treated with saline on days 2, 4, 6, and 8 and with cocaine or saline on days 3, 5, 7, and 9 depending on their assigned group. Animals are confined to their assigned compartment (saline- or cocaine-paired compartment) for 20 minutes following dosing.
# Day 10 Post-conditioning bias test: Animals are dosed once with either saline, MTEP or Compound 1 (1, 3 and 10 mg/kg) according to their assigned. Following dosing, animals are allowed to explore the testing chamber freely for 20 minutes with the compartment dividing door open. Their activity exploring the chamber is recorded for analysis.
# Statistical Analysis: Statistical analysis was conducted using GraphPad Prism 9. Scorers blinded to the treatment groups scored the amount of time each animal spent exploring each chamber on days 1 and 10. For bias test data, a one-way analysis of variance (ANOVA) followed by Dunnett's post hoc test was used. Significance was set at p<0.05 and values exceeding two standard deviations of the mean were considered statistical outliers and were excluded from the analysis. Additionally, if an animal spent >85% or <15% of the time in one compartment even without any obvious signs of sedation or locomotor dysfunction, they were excluded from the analysis.
# [4] = 1 mg/kg IP 30 minutes prior to day 10 bias test
# [5] = MTEP 3 mg/kg IP 30 minutes prior to day 10 bias test
Compound,yohimbine-induced cocaine reinstatement [1],yohimbine-induced oxycodone reinstatement vs Vehicle-Yohimbine group [2],"Percent time in compound-paired compartment, Mean Diff., Cocaine - Saline vs. Cocaine - Compound 1 (1 mg/kg) [3, 4]","Preference Scores, Mean Diff., Cocaine - Saline vs. Cocaine - Compound 1 (1 mg/kg) [3, 4]","time difference (drug-paired vs saline-paired) vs Cocaine-Saline group ([3]; 1 mg/kg IP, p<0.01)","time spent in the drug-paired compartment vs Cocaine-Saline group ([3]; 1 mg/kg IP, p<0.01)","time difference (drug-paired vs saline-paired) vs Cocaine-Saline group ([3]; 3 mg/kg IP, p<0.05)","time spent in the drug-paired compartment vs Cocaine-Saline group ([3]; 3 mg/kg IP, p<0.05)","Percent time in compound-paired compartment, Mean Diff., Cocaine - Saline vs. Cocaine - MTEP [3, 5]","Preference Scores, Mean Diff., Cocaine - Saline vs. Cocaine - MTEP [3, 5]"
"N#Cc1cc(Cl)cc(-c2cc(-c3ccc(F)cn3)ncn2)c1 [Compound 1, 3-chloro-5-[6-(5-fluoropyridin-2-yl)pyrimidin-4-yl]benzonitrile]",almost entirely prevented cocaine reinstatement,attenuated yohimbine-induced oxycodone reinstatement,19.16%,459.9 s,significantly lower time difference,significantly less time in the drug-paired compartment,,,,
"Cc1nc(C#Cc2cccnc2)cs1 [MTEP, 3-((2-Methyl-4-thiazolyl)ethynyl)pyridine]",almost entirely prevented cocaine reinstatement,attenuated yohimbine-induced oxycodone reinstatement,,,,,significantly lower time difference,significantly less time in the drug-paired compartment,18.73%,449.6 s
